pIC50: −log10 of the molar value. Where a name gives a salt, the structure may show the parent alone.

One may read the pIC50 as the negative decadic logarithm of the IC50, by convention in mol/L. High values mean a low IC50, low ones a high IC50.

Chain of GST tagged IRAK4 (Q9NWZ3 whole entry): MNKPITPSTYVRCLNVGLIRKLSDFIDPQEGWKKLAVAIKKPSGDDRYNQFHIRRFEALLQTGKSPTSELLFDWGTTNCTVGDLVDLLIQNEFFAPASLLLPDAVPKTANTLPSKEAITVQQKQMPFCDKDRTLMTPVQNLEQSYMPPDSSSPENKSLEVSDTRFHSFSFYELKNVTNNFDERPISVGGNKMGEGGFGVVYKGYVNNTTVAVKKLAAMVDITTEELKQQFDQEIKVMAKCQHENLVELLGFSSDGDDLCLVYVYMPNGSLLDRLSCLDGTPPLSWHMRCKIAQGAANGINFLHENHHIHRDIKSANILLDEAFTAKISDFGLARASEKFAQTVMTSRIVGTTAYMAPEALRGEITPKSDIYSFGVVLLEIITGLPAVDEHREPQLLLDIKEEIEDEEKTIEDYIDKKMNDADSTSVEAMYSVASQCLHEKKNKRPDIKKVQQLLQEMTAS

The assay deals with GST tagged IRAK4 (Homo sapiens (Human), UniProt Q9NWZ3). The assay is described as follows: IRAK4 Kinase Assay (IMAP fluorescence polarization). In kind it is biochemical. The settings on record: 0.5 nM GST tagged IRAK4, 100 μM ATP, 30 minutes at 25° C. In short, it runs like this:
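Reactions contained 0.5 nM GST-IRAK4, 100 nM fluorescent peptide substrate and 100 μM ATP in 10 mM Tris-HCl pH 7.2 with 1 mM MgCl2, and were started with ATP. After 30 minutes at 25° C they were stopped with IMAP reagent. Substrate phosphorylation was read as the change in fluorescence polarization.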
(In general: Polarisation of emitted light reports the rotation of a fluorescent probe.)
Regarding `N[C@H]1CCCC[C@H]1Nc1ncc2ccc(C(=O)Nc3ccccc3Br)n2n1` [Example 32, 2-{[(1R,2S)-2-aminocyclohexyl]amino}-N-(2-bromophenyl)pyrrolo[2,1-f][1,2,4]triazine-7-carboxamide trifluoroacetate], the pIC50 was 7.96.
In the case of `Cn1cc(NC(=O)c2ccc3cnc(N4C[C@@H](N)C[C@H](F)C4)nn23)c(C(F)F)n1` [Example 157, 2-[(3S,5S)-3-amino-5-fluoropiperidin-1-yl]-N-[3-(difluoromethyl)-1-methyl-1H-pyrazol-4-yl]pyrrolo[2,1-f][1,2,4]triazine-7-carboxamide trifluoroacetate] it was 9.10; in that of `Cn1cc(NC(=O)c2ccc3cnc(N[C@@H]4CNC[C@@H](F)C4)nn23)c(C(F)F)n1` [Example 164, N-[3-(difluoromethyl)-1-methyl-1H-pyrazol-4-yl]-2-{[(3S,5S)-5-fluoropiperidin-3-yl]amino}pyrrolo[2,1-f][1,2,4]triazine-7-carboxamide], 9.30; in that of `N[C@H]1CCCC[C@H]1Nc1ncc2ccc(C(=O)Nc3cscc3C(F)F)n2n1` [Example 42, 2-{[(1R,2S)-2-aminocyclohexyl]amino}-N-[4-(difluoromethyl)thiophen-3-yl]pyrrolo[2,1-f][1,2,4]triazine-7-carboxamide trifluoroacetate], 8.40.
`Cn1cc(NC(=O)c2ccc3cnc(N[C@@H]4CCCCNC4)nn23)c(C(F)F)n1` (single isomer, unassigned) [Example 90, 2-[(3S)- or (3R)-azepan-3-ylamino]-N-[3-(difluoromethyl)-1-methyl-1H-pyrazol-4-yl]pyrrolo[2,1-f][1,2,4]triazine-7-carboxamide trifluoroacetate]: the pIC50 is 9.15.
In turn, `O=C(Nc1ccsc1Br)c1ccc2cnc(N3CCCNCC3)nn12` [Example 37, N-(2-bromothiophen-3-yl)-2-(1,4-diazepan-1-yl)pyrrolo[2,1-f][1,2,4]triazine-7-carboxamide trifluoroacetate] had a negative-log IC50 (pIC50) of 5.78.
In the case of `O=C(Nc1ccsc1Br)c1ccc2cnc(N3C[C@H]4CC[C@@H]3CN4)nn12` (single isomer, unassigned) [Example 49, N-(2-bromothiophen-3-yl)-2-[(1S,4S)- or (1R,4R)-2,5-diazabicyclo[2.2.2]oct-2-yl]pyrrolo[2,1-f][1,2,4]triazine-7-carboxamide trifluoroacetate] it was 5.71; in that of `N#Cc1ccccc1NC(=O)c1ccc2cnc(N3CCC[C@@H](N)C3)nn12` [Example 51, 2-[(3R)-3-aminopiperidin-1-yl]-N-(2-cyanophenyl)pyrrolo[2,1-f][1,2,4]triazine-7-carboxamide trifluoroacetate], 6.80; in that of `O=C(Nc1cscc1C(F)F)c1ccc2cnc(N3C[C@H]4CC[C@@H]3CN4)nn12` (single isomer, unassigned) [Example 81, 2-[(1S,4S)- or (1R,4R)-2,5-diazabicyclo[2.2.2]oct-2-yl]-N-[4-(difluoromethyl)thiophen-3-yl]pyrrolo[2,1-f][1,2,4]triazine-7-carboxamide trifluoroacetate], 7.20.
The molecule `O=C(Nc1cscc1Cl)c1ccc2cnc(N3C[C@@H]4CC[C@H]3CN4)nn12` (single isomer, unassigned) [Example 107, N-(4-chlorothiophen-3-yl)-2-[(1S,4S)- or (1R,4R)-2,5-diazabicyclo[2.2.2]oct-2-yl]pyrrolo[2,1-f][1,2,4]triazine-7-carboxamide trifluoroacetate] showed a pIC50 of 6.43.
The value for `Cn1cc(NC(=O)c2ccc3cnc(N4C[C@@H]5CNC[C@H]4C5)nn23)c(C(F)(F)F)n1` (single isomer, unassigned) [Example 116, 2-[(1S,5R)- or (1R,5S)-3,6-diazabicyclo[3.2.1]oct-6-yl]-N-[1-methyl-3-(trifluoromethyl)-1H-pyrazol-4-yl]pyrrolo[2,1-f][1,2,4]triazine-7-carboxamide] was 7.35; that for `Cn1cc(NC(=O)c2ccc3cnc(N[C@@H]4CCCNC4)nn23)c(C(F)(F)F)n1` [Example 5, N-[1-methyl-3-(trifluoromethyl)-1H-pyrazol-4-yl]-2-[(3R)-piperidin-3-ylamino]pyrrolo[2,1-f][1,2,4]triazine-7-carboxamide trifluoroacetate] was 8.70.
`N[C@H]1CCCC[C@H]1Nc1ncc2ccc(C(=O)Nc3ccsc3Br)n2n1` [Example 38, 2-{[(1R,2S)-2-aminocyclohexyl]amino}-N-(2-bromothiophen-3-yl)pyrrolo[2,1-f][1,2,4]triazine-7-carboxamide trifluoroacetate] had a pIC50 of 8.15.
In the case of `O=C(Nc1ccccc1Cl)c1ccc2cnc(N3CCCNCC3)nn12` [Example 39, N-(2-chlorophenyl)-2-(1,4-diazepan-1-yl)pyrrolo[2,1-f][1,2,4]triazine-7-carboxamide trifluoroacetate], the pIC50 is 6.64.
`Cn1cc(NC(=O)c2ccc3cnc(N4CCCNCC4)nn23)c(C(F)F)n1` [Example 15, 2-(1,4-diazepan-1-yl)-N-[3-(difluoromethyl)-1-methyl-1H-pyrazol-4-yl]pyrrolo[2,1-f][1,2,4]triazine-7-carboxamide trifluoroacetate]: the pIC50 was 8.22.
`O=C(Nc1ccccc1Br)c1ccc2cnc(N3CCCNCC3)nn12` [Example 33, N-(2-bromophenyl)-2-(1,4-diazepan-1-yl)pyrrolo[2,1-f][1,2,4]triazine-7-carboxamide trifluoroacetate] gave a negative-log IC50 (pIC50) of 5.27.
`Cn1cc(NC(=O)c2ccc3cnc(N4CCCNCC4)nn23)c(C(F)(F)F)n1` [Example 6, 2-(1,4-diazepan-1-yl)-N-[1-methyl-3-(trifluoromethyl)-1H-pyrazol-4-yl]pyrrolo[2,1-f][1,2,4]triazine-7-carboxamide trifluoroacetate] showed a pIC50 of 7.03.
`O=C(Nc1ccsc1C(F)(F)F)c1ccc2cnc(N3C[C@@H]4CC[C@H]3CN4)nn12` (single isomer, unassigned) [Example 86, 2-[(1S,4S)- or (1R,4R)-2,5-diazabicyclo[2.2.2]oct-2-yl]-N-[2-(trifluoromethyl)thiophen-3-yl]pyrrolo[2,1-f][1,2,4]triazine-7-carboxamide trifluoroacetate] showed a pIC50 of 5.64.
In the case of `Cn1cc(NC(=O)c2ccc3cnc(N4C[C@H]5CC[C@@H]4CN5)nn23)c(Br)n1` (single isomer, unassigned) [Example 64, N-(3-bromo-1-methyl-1H-pyrazol-4-yl)-2-[(1S,4S)- or (1R,4R)-2,5-diazabicyclo[2.2.2]oct-2-yl]pyrrolo[2,1-f][1,2,4]triazine-7-carboxamide trifluoroacetate] it was 6.91; in that of `Cn1cc(NC(=O)c2ccc3cnc(N4CCNCC4)nn23)c(C(F)F)n1` [Example 11, N-[3-(difluoromethyl)-1-methyl-1H-pyrazol-4-yl]-2-piperazin-1-ylpyrrolo[2,1-f][1,2,4]triazine-7-carboxamide trifluoroacetate], 8.52; in that of `Cn1cc(NC(=O)c2ccc3cnc(N[C@@H]4CCCC[C@@H]4N)nn23)cn1` [Example 169, 2-{[(1R,2S)-2-aminocyclohexyl]amino}-N-(1-methyl-1H-pyrazol-4-yl)pyrrolo[2,1-f][1,2,4]triazine-7-carboxamide trifluoroacetate], 7.46.
In the case of `Cn1cc(NC(=O)c2ccc3cnc(N4C[C@@H]5CC[C@H]4CN5)nn23)c(C#N)n1` (single isomer, unassigned) [Example 46, N-(3-cyano-1-methyl-1H-pyrazol-4-yl)-2-[(1S,4S)- or (1R,4R)-2,5-diazabicyclo[2.2.2]oct-2-yl]pyrrolo[2,1-f][1,2,4]triazine-7-carboxamide trifluoroacetate] it was 7.14; in that of `N#Cc1cscc1NC(=O)c1ccc2cnc(N[C@@H]3CCCNC3)nn12` [Example 145, N-(4-cyanothiophen-3-yl)-2-[(3R)-piperidin-3-ylamino]pyrrolo[2,1-f][1,2,4]triazine-7-carboxamide trifluoroacetate], 8.52; in that of `Cn1cc(NC(=O)c2ccc3cnc(N4C5CCC4CNC5)nn23)c(C(F)(F)F)n1` [Example 96, 2-(3,8-diazabicyclo[3.2.1]oct-8-yl)-N-[1-methyl-3-(trifluoromethyl)-1H-pyrazol-4-yl]pyrrolo[2,1-f][1,2,4]triazine-7-carboxamide trifluoroacetate], 8.30.
With `N[C@H]1CCCC[C@H]1Nc1ncc2ccc(C(=O)Nc3ccsc3Cl)n2n1` [Example 30, 2-{[(1R,2S)-2-aminocyclohexyl]amino}-N-(2-chlorothiophen-3-yl)pyrrolo[2,1-f][1,2,4]triazine-7-carboxamide trifluoroacetate], the pIC50 was 8.52.
In the case of `N#Cc1ccccc1NC(=O)c1ccc2cnc(N3CCNCC3)nn12` [Example 58, N-(2-cyanophenyl)-2-piperazin-1-ylpyrrolo[2,1-f][1,2,4]triazine-7-carboxamide trifluoroacetate] it was 5.72; in that of `Cn1cc(NC(=O)c2ccc3cnc(N[C@@H]4CCCC[C@@H]4N)nn23)c(C#N)n1` [Example 35, 2-{[(1R,2S)-2-aminocyclohexyl]amino}-N-(3-cyano-1-methyl-1H-pyrazol-4-yl)pyrrolo[2,1-f][1,2,4]triazine-7-carboxamide trifluoroacetate], 9.00; in that of `Cn1cc(NC(=O)c2ccc3cnc(N4C[C@@H]5CN[C@@H](C5)C4)nn23)c(C(F)F)n1` (single isomer, unassigned) [Example 103, 2-[(1S,5S)- or (1R,5R)-3,6-diazabicyclo[3.2.1]oct-3-yl]-N-[3-(difluoromethyl)-1-methyl-1H-pyrazol-4-yl]pyrrolo[2,1-f][1,2,4]triazine-7-carboxamide], 8.00.
For the molecule `O=C(Nc1cscc1Cl)c1ccc2cnc(N3CCCNCC3)nn12` [Example 105, N-(4-chlorothiophen-3-yl)-2-(1,4-diazepan-1-yl)pyrrolo[2,1-f][1,2,4]triazine-7-carboxamide trifluoroacetate], the pIC50 was 5.32.
